Data from patent US6514997B2, “Antipicornaviral compounds and compositions, their pharmaceutical uses, and materials for their synthesis” (Agouron Pharmaceuticals, Inc., priority 1999, dated 2003).
Where two headings read alike, the source gives them in different places.

How the values were obtained:
[1] = target: T1, Recombinant rhinovirus 3C protease, serotype 14 (Human rhinovirus 14, UniProt P03303); assay: Inhibition of rhinovirus 3C protease (FRET assay, kobs/[I]), serotype 14; format: biochemical; conditions: pH 7.6, read-out: kobs/[I] (3C protease inhibition activity)
T1 construct: Recombinant rhinovirus 3C proteases; made in house
T1 sequence (P03303 1538-1719): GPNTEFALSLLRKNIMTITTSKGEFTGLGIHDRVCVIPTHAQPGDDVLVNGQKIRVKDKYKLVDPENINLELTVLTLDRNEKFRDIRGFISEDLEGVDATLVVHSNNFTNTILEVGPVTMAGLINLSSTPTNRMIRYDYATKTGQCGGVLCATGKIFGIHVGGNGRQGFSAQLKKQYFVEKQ
Summary of the method: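 Enzyme-start FRET assay with ~1 μM DABCYL/EDANS peptide substrate and 50-100 nM recombinant protease in 50 mM tris pH 7.6, 1 mM EDTA, 2% DMSO. Cleavage followed as fluorescence increase; kobs/[I] derived from progress curves.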

H1-HeLa cells = assay: Cytotoxicity (CC50) in mock-infected H1-HeLa cells, XTT dye reduction; format: cell-based, human
Summary of the method: (§1)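 H1-HeLa cells mock-infected, read by XTT/PMS formazan at 450/650 nm.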

[2] = as above; format: cell-based, human; conditions: human, H1-HeLa cells, mock-infected
Summary of the method: as §1

HRV-14 = assay: Antirhinoviral H1-HeLa cell culture assay (XTT cell protection, EC50), HRV-14; format: cell-based, human rhinovirus (HRV) serotype-14 in H1-HeLa cells; conditions: Rhinovirus B, HRV14, H1-HeLa
Summary of the method: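 H1-HeLa cells were infected with HRV-14 at m.o.i. 0.13, or mock-infected, and incubated with compound for two days. Cell protection was read by XTT/PMS formazan absorbance at 450/650 nm to give EC50. CC50 came from mock-infected cells, and TI = CC50/EC50.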

[3] = system: strains of human rhinovirus (HRV); assay: Antirhinoviral H1-HeLa cell culture assay (XTT cell protection, EC50), other HRV strains; format: cell-based, human rhinovirus in H1-HeLa cells; conditions: read-out: EC50
Summary of the method: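 H1-HeLa cells infected, or mock-infected, were incubated with compounds for two days. Cell protection measured by XTT/PMS formazan absorbance at 450/650 nm; TI taken as CC50 divided by EC50.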

[4] = Human rhinovirus sp., HRV3, H1-HeLa, HRV-3
[5] = Human rhinovirus sp., HRV9, H1-HeLa, HRV-9
[6] = Human rhinovirus sp., HRV10, H1-HeLa, HRV-10
[7] = Human rhinovirus sp., HRV16, H1-HeLa, HRV-16
[8] = Human rhinovirus sp., HRV25, H1-HeLa, HRV-25
[9] = Human rhinovirus sp., HRV39, H1-HeLa, HRV-39

Cc1cc(C(=O)Nc2cccn([C@@H](Cc3ccc(F)c(F)c3)C(=O)N[C@H](/C=C/C(=O)OC(C)(C)C)C[C@@H]3CCNC3=O)c2=O)no1 [Compound 46]
kinact/KI ([1]; HRV-14): 350000 M⁻¹ s⁻¹
CC50 (H1-HeLa cells; line of HRV-1A): > 10000 nM
CC50 (H1-HeLa cells; line of HRV-2): > 10000 nM
CC50 (H1-HeLa cells; line of HRV-3): > 10000 nM
CC50 (H1-HeLa cells; line of HRV-9): > 10000 nM
CC50 (H1-HeLa cells; line of HRV-10): > 10000 nM
CC50 (H1-HeLa cells; line of HRV-11): > 10000 nM
CC50 (H1-HeLa cells; line of HRV-13): > 10000 nM
CC50 (H1-HeLa cells; line of HRV-16): > 10000 nM
CC50 (H1-HeLa cells; line of HRV-19): > 10000 nM
CC50 (H1-HeLa cells; line of HRV-23): > 10000 nM
CC50 (H1-HeLa cells; line of HRV-25): > 10000 nM
CC50 (H1-HeLa cells; line of HRV-39): > 10000 nM
CC50 (H1-HeLa cells; line of HRV-78): > 10000 nM
CC50 (H1-HeLa cells; line of HRV-Hanks): > 10000 nM
CC50 at 2 days ([2]; line of HRV-14): > 10000 nM
EC50 (HRV-14): 6 nM
EC50 ([3]; H1-HeLa, HRV-1A): 182 nM
EC50 ([3]; H1-HeLa, HRV-2): 145 nM
EC50 ([3]; H1-HeLa, HRV-23): 11 nM
EC50 ([3]; Human rhinovirus sp., H1-HeLa, HRV-Hanks): 5 nM
EC50 [3, 4]: 45 nM
EC50 [3, 5]: 151 nM
EC50 [3, 6]: 135 nM
EC50 ([3]; Human rhinovirus sp., HRV11, H1-HeLa, HRV-11): 3 nM
EC50 ([3]; Human rhinovirus sp., HRV13, H1-HeLa, HRV-13): 78 nM
EC50 [3, 7]: 160 nM
EC50 ([3]; Human rhinovirus sp., HRV19, H1-HeLa, HRV-19): 20 nM
EC50 [3, 8]: 188 nM
EC50 [3, 9]: 227 nM
EC50 ([3]; Human rhinovirus sp., HRV78, H1-HeLa, HRV-78): 25 nM

Cc1cc(C(=O)Nc2cccn([C@@H](Cc3ccc(F)c(F)c3)C(=O)N[C@H](/C=C/C(=O)OC3CCCC3)C[C@@H]3CCNC3=O)c2=O)no1 [Compound 49, trans-(2′S,3″″″S,4S)-4-[3′-(3″,4″-Difluorophenyl)-2′-(3′″-{[1″″-(5′″″-methylisoxazol-3′″″-yl)methanoyl]amino}-2″″-oxo-2″″H-pyridin-1″″-yl)propanoylamino]-5-(2″″″-oxopyrrolidin-3″″″-yl)pent-2-enoic Acid Cyclopentyl Ester]
kinact/KI ([1]; HRV-14): 1.2e+06 M⁻¹ s⁻¹
CC50 (H1-HeLa cells; line of HRV-1A): > 10000 nM
CC50 (H1-HeLa cells; line of HRV-2): > 10000 nM
CC50 (H1-HeLa cells; line of HRV-3): > 10000 nM
CC50 (H1-HeLa cells; line of HRV-9): > 10000 nM
CC50 (H1-HeLa cells; line of HRV-10): > 10000 nM
CC50 (H1-HeLa cells; line of HRV-16): > 10000 nM
CC50 (H1-HeLa cells; line of HRV-25): > 10000 nM
CC50 (H1-HeLa cells; line of HRV-39): > 10000 nM
CC50 at 2 days ([2]; line of HRV-14): > 10000 nM
EC50 (HRV-14): 4 nM
EC50 ([3]; H1-HeLa, HRV-1A): 131 nM
EC50 ([3]; H1-HeLa, HRV-2): 83 nM
EC50 [3, 4]: 41 nM
EC50 [3, 5]: 95 nM
EC50 [3, 6]: 76 nM
EC50 [3, 7]: 32 nM
EC50 [3, 8]: 371 nM
EC50 [3, 9]: 145 nM

C#CC[C@@H](C(=O)N[C@H](/C=C/C(=O)OC(C)C)C[C@@H]1CCNC1=O)n1cccc(NC(=O)c2cc(C)on2)c1=O [Compound 50, trans-(2′S,3′″″S,4S)-4-[2′-(3″- {[1′″-(5″″-Methylisoxazol-3″″-yl)methanoyl]amino}-2′″-oxo-2′″H-pyridin-1′″-yl)pent-4″-ynoylamino]-5-(2′″″-oxopyrrolidin-3′″″-yl)pent-2-enoic Acid Isopropyl Ester]
kinact/KI ([1]; HRV-14): 100000 M⁻¹ s⁻¹
CC50 (H1-HeLa cells; line of HRV-1A): > 10000 nM
CC50 (H1-HeLa cells; line of HRV-2): > 10000 nM
CC50 (H1-HeLa cells; line of HRV-3): > 10000 nM
CC50 (H1-HeLa cells; line of HRV-9): > 10000 nM
CC50 (H1-HeLa cells; line of HRV-10): > 10000 nM
CC50 (H1-HeLa cells; line of HRV-16): > 10000 nM
CC50 (H1-HeLa cells; line of HRV-25): > 10000 nM
CC50 (H1-HeLa cells; line of HRV-39): > 10000 nM
CC50 at 2 days ([2]; line of HRV-14): > 10000 nM
EC50 (HRV-14): 68 nM
EC50 ([3]; H1-HeLa, HRV-1A): 200 nM
EC50 ([3]; H1-HeLa, HRV-2): 105 nM
EC50 [3, 4]: 117 nM
EC50 [3, 5]: 122 nM
EC50 [3, 6]: 750 nM
EC50 [3, 7]: 185 nM
EC50 [3, 8]: 371 nM
EC50 [3, 9]: > 1000 nM

CC[C@@H](C(=O)N[C@H](/C=C/C(=O)OC(C)C)C[C@@H]1CCNC1=O)n1cccc(NC(=O)c2cc(C)on2)c1=O [Compound 52, trans-(2′S,3′″″S,4S)-4-[2′-(3″-{[1′″-(5″″-Methylisoxazol-3″″-yl)methanoyl]amino}-2′″oxo-2′″H-pyridin-1′″-yl)butanoylamino]-5-(2′″″-oxopyrrolidin-3′″″-yl)pent-2-enoic Acid Isopropyl Ester]
kinact/KI ([1]; HRV-14): 36000 M⁻¹ s⁻¹
CC50 (H1-HeLa cells; line of HRV-9): > 10000 nM
CC50 (H1-HeLa cells; line of HRV-10): > 10000 nM
CC50 (H1-HeLa cells; line of HRV-16): > 10000 nM
CC50 (H1-HeLa cells; line of HRV-25): > 10000 nM
CC50 (H1-HeLa cells; line of HRV-39): > 10000 nM
CC50 at 2 days ([2]; line of HRV-14): > 10000 nM
EC50 (HRV-14): 181 nM
EC50 [3, 5]: 473 nM
EC50 [3, 6]: 176 nM
EC50 [3, 7]: 280 nM
EC50 [3, 8]: 109 nM
EC50 [3, 9]: 337 nM

Cc1cc(C(=O)Nc2cccn([C@@H](Cc3ccc(F)c(F)c3)C(=O)N[C@H](/C=C/C(=O)OC3CCCCC3)C[C@@H]3CCNC3=O)c2=O)no1 [Compound 54, trans-(2′S,3″″″S,4S)-4-[3′-(3″,4″-Difluorophenyl)-2′-(3′″-{[1″″-(5′″″-methylisoxazol-3′″″-yl)methanoyl]amino}-2″″-oxo-2″″H-pyridin-1″″-yl)propanoylamino]-5-(2″″″-oxopyrrolidin-3″″″-yl)pent-2-enoic Acid Cyclohexyl Ester]
kinact/KI ([1]; HRV-14): 244000 M⁻¹ s⁻¹
CC50 (H1-HeLa cells; line of HRV-1A): > 10000 nM
CC50 (H1-HeLa cells; line of HRV-2): > 10000 nM
CC50 (H1-HeLa cells; line of HRV-9): > 10000 nM
CC50 (H1-HeLa cells; line of HRV-10): > 10000 nM
CC50 (H1-HeLa cells; line of HRV-16): > 10000 nM
CC50 (H1-HeLa cells; line of HRV-25): > 10000 nM
CC50 (H1-HeLa cells; line of HRV-39): > 10000 nM
CC50 at 2 days ([2]; line of HRV-14): > 10000 nM
EC50 (HRV-14): 45 nM
EC50 ([3]; H1-HeLa, HRV-1A): 490 nM
EC50 ([3]; H1-HeLa, HRV-2): 148 nM
EC50 [3, 5]: 517 nM
EC50 [3, 6]: 131 nM
EC50 [3, 7]: 142 nM
EC50 [3, 8]: 215 nM
EC50 [3, 9]: 346 nM

C#CC[C@@H](C(=O)N[C@H](/C=C/C(=O)OC1CCCCC1)C[C@@H]1CCNC1=O)n1cccc(NC(=O)c2cc(C)on2)c1=O [Compound 55, trans-(2′S,3′″″S,4S)-4-[2′-(3″-{[1′″-(5″″-Methylisoxazol-3″″-yl)methanoyl]amino}-2′″-oxo-2′″H-pyridin-1′″-yl)pent-4″-ynoylamino]-5-(2′″″-oxopyrrolidin-3′″″-yl)pent-2-enoic Acid Cyclohexyl Ester]
kinact/KI ([1]; HRV-14 3C protease): 34000 M⁻¹ s⁻¹
CC50 (H1-HeLa cells; HRV-1A): > 10000 nM
CC50 (H1-HeLa cells; HRV-9): > 10000 nM
CC50 (H1-HeLa cells; HRV-10): > 10000 nM
CC50 (H1-HeLa cells; HRV-25): > 10000 nM
CC50 at 2 days ([2]; HRV-14): > 10000 nM
EC50 (HRV-14): 173 nM
EC50 ([3]; H1-HeLa, HRV-1A): 520 nM
EC50 [3, 5]: 531 nM
EC50 [3, 6]: 195 nM
EC50 [3, 8]: 515 nM

Cc1cc(C(=O)Nc2cccn([C@@H](Cc3ccc(F)c(F)c3)C(=O)N[C@H](/C=C/C(=O)OC3CCCCCC3)C[C@@H]3CCNC3=O)c2=O)no1 [Compound 56, trans-(2′S,3″″″S,4S)-4-[3′-(3″,4″-Difluorophenyl)-2′-(3′″-{[1″″-(5′″″-methylisoxazol-3′″″-yl)methanoyl]aminol}-2″″-oxo-2″″H-pyridin-1″″-yl)propanoylamino]-5-(2″″″-oxopyrrolidin-3″″″-yl)pent-2-enoic Acid Cycloheptyl Ester]
kinact/KI ([1]; HRV-14 3C protease): 99000 M⁻¹ s⁻¹
CC50 (H1-HeLa cells; HRV-1A): > 10000 nM
CC50 (H1-HeLa cells; HRV-9): > 10000 nM
CC50 (H1-HeLa cells; HRV-10): > 10000 nM
CC50 (H1-HeLa cells; HRV-25): > 10000 nM
CC50 at 2 days ([2]; HRV-14): > 10000 nM
EC50 (HRV-14): 163 nM
EC50 ([3]; H1-HeLa, HRV-1A): 504 nM
EC50 [3, 5]: 546 nM
EC50 [3, 6]: 158 nM
EC50 [3, 8]: 400 nM

C#CC[C@@H](C(=O)N[C@H](/C=C/C(=O)OC1CCCCCC1)C[C@@H]1CCNC1=O)n1cccc(NC(=O)c2cc(C)on2)c1=O [Compound 57, trans-(2′S,3′″″S,4S)-4-[2′-(3″-{[1′″-(5″″-Methylisoxazol-3″″-yl)methanoyl]amino}-2′″-oxo-2′″H-pyridin-1′″-yl)pent-4″-ynoylamino]-5-(2′″″-oxopyrrolidin-3′″″-yl)pent-2-enoic Acid Cycloheptyl Ester]
kinact/KI ([1]; HRV-14 3C protease): 47000 M⁻¹ s⁻¹
CC50 (H1-HeLa cells; HRV-1A): > 10000 nM
CC50 (H1-HeLa cells; HRV-9): > 10000 nM
CC50 (H1-HeLa cells; HRV-10): > 10000 nM
CC50 (H1-HeLa cells; HRV-25): > 10000 nM
CC50 at 2 days ([2]; HRV-14): > 10000 nM
EC50 (HRV-14): 422 nM
EC50 ([3]; H1-HeLa, HRV-1A): 1610 nM
EC50 [3, 5]: 1500 nM
EC50 [3, 6]: 482 nM
EC50 [3, 8]: 511 nM
